# Laboratory results published in patent US8022225B2, “Triazole derivative” (Taisho Pharmaceutical Co., Ltd, priority 2004, dated 2011).
# Tests used:
# human Edg-1(S1P1) [1] = target: T1, human Edg-1(S1P1) (Homo sapiens, UniProt P21453); assay: Cell system binding test: inhibition of [3H]-S1P binding to Edg-1(S1P1) gene transferred HEK-293 cells; conditions: 10 μM compound, [3H]-S1P 10 nM, read-out: Cell system binding test % inhibition (10 μM)
# T1 construct: expressed in transfected cells; host or cells: HEK-293
# T1 sequence (P21453 whole entry): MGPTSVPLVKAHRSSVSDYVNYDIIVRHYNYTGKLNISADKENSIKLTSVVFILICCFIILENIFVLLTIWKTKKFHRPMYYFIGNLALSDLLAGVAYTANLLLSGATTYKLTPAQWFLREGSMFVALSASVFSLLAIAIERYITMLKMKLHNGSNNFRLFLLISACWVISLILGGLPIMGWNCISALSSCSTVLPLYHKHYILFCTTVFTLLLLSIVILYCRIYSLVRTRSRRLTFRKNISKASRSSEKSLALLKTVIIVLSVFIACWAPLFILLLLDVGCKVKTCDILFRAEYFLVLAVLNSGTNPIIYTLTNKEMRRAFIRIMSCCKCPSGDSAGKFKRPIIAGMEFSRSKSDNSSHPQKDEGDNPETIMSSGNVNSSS
# Description: Cells (1×10^5 cells/well) obtained as described above were seeded in poly-L-lysine-coated 96-well plates (Corning Incorporated), and then incubated in a 5% carbon dioxide gas incubator for 12 hours at 37° C. with the use of an MEM medium (Invitrogen Corporation) containing 100 U/mL of penicillin, 100 μg/mL of streptomycin, a 1% MEM nonessential amino acid solution, and 10% FCS. […] After the cells were washed twice with the buffer, they were solubilized with 100 μL of Opti Phase Supermix (produced by Perkin-Elmer), and measured for radioactivity by means of Micro Beta (produced by Perkin-Elmer).
# Inhibition rate(%)=[1−(A−C)/(B−C)]×100
# human Edg-1(S1P1) [2] = target: T1, human Edg-1(S1P1); assay: Membrane system binding test: inhibition of [33P]-S1P binding to the membrane fraction of Edg-1(S1P1) gene transferred HEK-293 cells
# Description: The membrane fraction was obtained by treating the cells with a solubilizing buffer (1 mM Tris/HCl, pH 7.2) for 10 minutes on ice, centrifuging the system (1000×g, 5 min) to remove insoluble fractions, and then centrifuging the system (40000×g, 30 min, 4° C.). The resulting membrane fraction was dissolved in a binding buffer (20 mM Tris-HCl, pH 7.4, 100 mM NaCl, 15 mM NaF, 2 mM deoxypyridoxine, 4 mg/mL fatty acid-free BSA), and then [^33P]-S1P (produced by ARC, end concentration 0.1 nM) and a DMSO solution of the test compound (end concentration of the compound: 10^−5 M, end concentration of DMSO: 0.1%) were added, followed by stirring the mixture and subsequently treating it for 1 hour at 30° C. Using a harvester, the membrane fraction was harvested onto unifilter-96GF/C filter (produced by Perkin-Elmer). Then, the filter with the membrane fraction was washed 4 times with the binding buffer, and the filter was dried. To the filter, 25 μL Microscint 0 (produced by Perkin-Elmer) was added, and the assay system was measured for radioactivity by means of Top Count NXT (Packard). Based on the radioactivity, the amount (A) of binding of [^33P]-S1P to the membrane fraction upon addition of the compound was calculated.
# The same procedure was performed in the absence of the test compound, and the amount (B) of binding of [^33P]-S1P was calculated. Moreover, the same procedure was performed in the absence of the test compound with the use of HEK-293 cells, to which the Edg-1(S1P1) gene had not been transferred, and the background amount (C) of binding of [^33P]-S1P was calculated.
# The Edg-1(S1P1) binding inhibition rate of the compound, calculated from the following equation, is shown in […]
# [3] = 10 μM compound, [33P]-S1P 0.1 nM, membrane fraction of Edg-1(S1P1) gene transferred HEK-293 cells, read-out: Membrane system binding test % inhibition (10 μM)
# [4] = test compound 10^-5 M, [33P]-S1P 0.1 nM, 1 hour at 30° C., HEK-293 membrane fraction, read-out: Edg-1(S1P1) binding inhibition rate (membrane system binding test)
inhibition at 10 µM (human Edg-1(S1P1) [1]) [%],inhibition at 10 µM (human Edg-1(S1P1) [2]; [3]) [%],inhibition at 10 µM (human Edg-1(S1P1) [2]; [4]) [%],Structure (SMILES),also measured
88.5,101,,CCCSc1nnc([C@@H](C)NS(=O)(=O)c2ccc(Cl)cc2)n1CC [Compound 2],
86.1,89.1,,C=CCSc1nnc([C@@H](C)NS(=O)(=O)c2ccc(Cl)cc2)n1CC [Compound 3],
86.8,101,,C#CCSc1nnc([C@@H](C)NS(=O)(=O)c2ccc(Cl)cc2)n1CC [Compound 4],
97.2,81.2,,"CCn1c(SCc2ccccc2)nnc1[C@@H](C)NS(=O)(=O)c1ccc(Cl)cc1 [Compound 5, N-{(1R)-1-[5-(benzylthio)-4-ethyl-4H-1,2,4-triazol-3-yl]ethyl}-4-chloro-benzenesulfonamide]",
94.3,99,,CCn1c(SCc2ccc(-c3ccccc3)cc2)nnc1[C@@H](C)NS(=O)(=O)c1ccc(Cl)cc1 [Compound 6],
88.5,74.6,,CCn1c(SCc2cccc(C#N)c2)nnc1[C@@H](C)NS(=O)(=O)c1ccc(Cl)cc1 [Compound 7],
83.9,85.6,,CCn1c(SC2CCCCC2)nnc1[C@@H](C)NS(=O)(=O)c1ccc(Cl)cc1 [Compound 8],
90.1,86.7,,CCn1c(SC2CCCC2)nnc1[C@@H](C)NS(=O)(=O)c1ccc(Cl)cc1 [Compound 9],
85.6,54.3,,CCn1c(SCC2CC2)nnc1[C@@H](C)NS(=O)(=O)c1ccc(Cl)cc1 [Compound 10],
85.5,45.1,,CCn1c(SCc2ccc(F)cc2)nnc1[C@@H](C)NS(=O)(=O)c1ccc(Cl)cc1 [Compound 11],
87.8,85.9,,CCn1c(SCC2(c3ccc(Cl)cc3)CC2)nnc1[C@@H](C)NS(=O)(=O)c1ccc(Cl)cc1 [Compound 12],
80.8,43.6,,CCn1c(SCC2CCOC2)nnc1[C@@H](C)NS(=O)(=O)c1ccc(Cl)cc1 (stereo partly shown) [Compound 13],
87,69.6,,C=CCCSc1nnc([C@@H](C)NS(=O)(=O)c2ccc(Cl)cc2)n1CC [Compound 14],
91,79.4,,CCn1c(SCCCC(F)(F)F)nnc1[C@@H](C)NS(=O)(=O)c1ccc(Cl)cc1 [Compound 15],
92.1,64.4,,CCn1c(SCCOC)nnc1[C@@H](C)NS(=O)(=O)c1ccc(Cl)cc1 [Compound 16],
85.5,90.6,,CCC#CCSc1nnc([C@@H](C)NS(=O)(=O)c2ccc(Cl)cc2)n1CC [Compound 17],
84.8,100,,CCn1c(SCCCC#Cc2ccccc2)nnc1[C@@H](C)NS(=O)(=O)c1ccc(Cl)cc1 [Compound 18],
82.5,100,,CCn1c(SCCc2ccc(Cl)cc2)nnc1[C@@H](C)NS(=O)(=O)c1ccc(Cl)cc1 [Compound 19],
84.3,74.3,,CCCC(CCC)Sc1nnc([C@@H](C)NS(=O)(=O)c2ccc(Cl)cc2)n1CC [Compound 20],
82.2,74.8,,C/C=C/CSc1nnc([C@@H](C)NS(=O)(=O)c2ccc(Cl)cc2)n1CC [Compound 21],
82.1,96.9,,CCn1c(SCc2cccc(C)c2)nnc1[C@@H](C)NS(=O)(=O)c1ccc(Cl)cc1 [Compound 22],
,44.4,,CCCOc1nnc([C@H](C)NS(=O)(=O)c2ccc(Cl)cc2)n1CC [Compound 184],
,75.5,,CCn1c(OC)nnc1[C@@H](C)NS(=O)(=O)c1ccc(C)nc1 [Compound 281],
,,96.7,CCn1c(OC)nnc1[C@@H](Cc1ccccc1)NS(=O)(=O)c1ccc(Cl)c(Cl)c1 [Compound 507],
,,83.5,CCn1c(SC)nnc1C(Cc1ccc(C(F)(F)F)cc1)NS(=O)(=O)c1ccc(Cl)c(Cl)c1 (stereo not shown) [Compound 518],
,,82.5,CCn1c(SC)nnc1C(Cc1ccc(C)cc1)NS(=O)(=O)c1ccc(Cl)c(Cl)c1 (stereo not shown) [Compound 523],

inhibition at 10 µM (human Edg-1(S1P1) [1]) [%],inhibition at 10 µM (human Edg-1(S1P1) [2]; [3]) [%],inhibition at 10 µM (human Edg-1(S1P1) [2]; [4]) [%],Structure (SMILES),also measured
,,75,CCn1c(SC)nnc1C(Cc1ccc(Cl)c(Cl)c1)NS(=O)(=O)c1ccc(Cl)c(Cl)c1 (stereo not shown) [Compound 524],
,,98,CCCOc1nnc([C@@H](Cc2ccc(C)cc2)NS(=O)(=O)c2ccc(Cl)c(Cl)c2)n1CC [Compound 525],
,,88.9,CCCOc1nnc([C@@H](Cc2ccc(Cl)c(Cl)c2)NS(=O)(=O)c2ccc(Cl)c(Cl)c2)n1CC [Compound 526],
,,89.7,CCCOc1nnc([C@@H](Cc2ccc(OC)cc2)NS(=O)(=O)c2ccc(Cl)c(Cl)c2)n1CC [Compound 527],
,,,CCCOc1nnc([C@@H](Cc2ccc(OC)cc2)NS(=O)(=O)c2ccc(Cl)c(Cl)c2)n1CC [Compound 528],"Edg-1(S1P1) binding inhibition rate (membrane system binding test) (human Edg-1(S1P1) [2]; test compound 10^-5 M, [33P]-S1P 0.1 nM, 1 hour at 30° C., HEK-293 membrane fraction): 94.0%"
,,100,CCCOc1nnc([C@@H](Cc2ccccc2)NS(=O)(=O)c2ccc(Cl)c(Cl)c2)n1CC [Compound 529],
,,97.2,CCn1c(OCC(F)(F)F)nnc1C(Cc1ccccc1)NS(=O)(=O)c1ccc(Cl)c(Cl)c1 (stereo not shown) [Compound 530],
,,100,CCn1c(OC2CCC2)nnc1[C@@H](Cc1ccccc1)NS(=O)(=O)c1ccc(Cl)c(Cl)c1 [Compound 531],
,,53.8,CCn1c([C@@H](C)NS(=O)(=O)c2ccc(Cl)c(Cl)c2)nnc1S(C)(=O)=O [Compound 532],
,,98.9,CCn1c(OC2CCCC2)nnc1[C@@H](Cc1ccccc1)NS(=O)(=O)c1ccc(Cl)c(Cl)c1 [Compound 533],
,,98.3,CCn1c(OC2CCCCC2)nnc1[C@@H](Cc1ccccc1)NS(=O)(=O)c1ccc(Cl)c(Cl)c1 [Compound 534],
,,102,CCn1c(OCCCOC)nnc1[C@@H](Cc1ccccc1)NS(=O)(=O)c1ccc(Cl)c(Cl)c1 [Compound 535],
,,98.4,CCOc1nnc([C@@H](Cc2ccccc2)NS(=O)(=O)c2ccc(Cl)c(Cl)c2)n1CC [Compound 536],
,,101,CCn1c(OC(C)C)nnc1[C@@H](Cc1ccccc1)NS(=O)(=O)c1ccc(Cl)c(Cl)c1 [Compound 537],
,,103,CCn1c(OCCCN2CCOCC2)nnc1[C@@H](Cc1ccccc1)NS(=O)(=O)c1ccc(Cl)c(Cl)c1 [Compound 538],
,,101,CCn1c(OCC2CC2)nnc1[C@@H](Cc1ccccc1)NS(=O)(=O)c1ccc(Cl)c(Cl)c1 [Compound 545],
,,96.9,CCn1c(OCc2ccccc2)nnc1[C@@H](Cc1ccccc1)NS(=O)(=O)c1ccc(Cl)c(Cl)c1 [Compound 546],
,,85.4,CCn1c(OC)nnc1[C@@H](Cc1ccc(-c2ccccc2)cc1)NS(=O)(=O)c1ccc(Cl)c(Cl)c1 [Compound 547],
,,99.8,CCn1c(OC)nnc1[C@@H](Cc1ccc(F)cc1)NS(=O)(=O)c1ccc(Cl)c(Cl)c1 [Compound 548],
,,99.7,CCn1c(OC)nnc1[C@@H](Cc1ccc(F)c(F)c1)NS(=O)(=O)c1ccc(Cl)c(Cl)c1 [Compound 549],
,,98.6,CCn1c(OC)nnc1[C@@H](Cc1ccccc1F)NS(=O)(=O)c1ccc(Cl)c(Cl)c1 [Compound 550],
,,101,CCn1c(OC)nnc1[C@@H](Cc1cccc(F)c1)NS(=O)(=O)c1ccc(Cl)c(Cl)c1 [Compound 551],
,,97.3,CCn1c(OC)nnc1[C@@H](Cc1cc(F)cc(F)c1)NS(=O)(=O)c1ccc(Cl)c(Cl)c1 [Compound 552],
,,94.2,COc1nnc([C@@H](Cc2ccccc2)NS(=O)(=O)c2ccc(Cl)c(Cl)c2)n1C [Compound 553],
,,88,CCCn1c(OC)nnc1[C@@H](Cc1ccccc1)NS(=O)(=O)c1ccc(Cl)c(Cl)c1 [Compound 554],
,,,"CCCCCCCCCCCCC/C=C\C(O)C(N)COP(=O)(O)O (stereo not shown) [[^33P]-S1P, reference compound]","Kd (human Edg-1(S1P1) [2]; radioligand binding, membrane fraction, read-out: Kd of binding to human Edg-1(S1P1) gene transferred HEK-293 cell strain membrane fraction): 0.15 nM"
